Laboratory results taken from PubChem BioAssay (NCI).
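Cells were grown in 96-well plates and exposed to each compound for 48 hours at five concentrations; endpoints were interpolated linearly between bracketing concentrations, or set to the highest concentration if not reached. GI50 marks 50% less growth. TGI denotes the concentration required for complete inhibition of growth.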

What was measured:
Test in all cases: NCI tumour cell line growth inhibition, 48 h
[1] = system: UACC-257 melanoma
[2] = system: OVCAR-8 ovarian
[3] = system: HOP-92 NSCLC
[4] = system: SK-MEL-2 melanoma
[5] = system: SNB-19 CNS
[6] = system: CAKI-1 renal
[7] = system: HCT-15 colon
[8] = system: SF-295 CNS
[9] = system: A498 renal
[10] = system: SR leukemia
[11] = system: TK-10 renal
[12] = system: MALME-3M melanoma
[13] = system: HL-60(TB) leukemia
[14] = system: ACHN renal
[15] = system: NCI-H23 lung
[16] = system: HT29 colon
[17] = system: LOX IMVI melanoma
[18] = system: MCF7 breast
[19] = system: SK-MEL-28 melanoma
[20] = system: KM12 colon
[21] = system: SF-539 CNS
[22] = system: HCT-116 colon
[23] = system: IGROV1 ovarian
[24] = system: NCI-H522 lung
[25] = system: MDA-MB-231 breast
[26] = system: EKVX NSCLC
[27] = system: NCI/ADR-RES ovarian
[28] = system: M14 melanoma
[29] = system: 786-0 renal
[30] = system: SNB-75 CNS
[31] = system: U251 CNS
[32] = system: OVCAR-3 ovarian
[33] = system: SK-MEL-5 melanoma
[34] = system: OVCAR-4 ovarian
[35] = system: CCRF-CEM leukemia
[36] = system: SK-OV-3 ovarian
[37] = system: COLO 205 colon
[38] = system: SW-620 colon
[39] = system: NCI-H460 lung
[40] = system: MOLT-4 leukemia
[41] = system: SF-268 CNS
[42] = system: HCC-2998 colon
[43] = system: K-562 leukemia
[44] = system: NCI-H226 lung
[45] = system: A549 NSCLC
[46] = system: T-47D breast
[47] = system: UO-31 renal
[48] = system: OVCAR-5 ovarian
[49] = system: UACC-62 melanoma
[50] = system: BT-549 breast
[51] = system: PC-3 prostate
[52] = system: HS 578T breast
[53] = system: SN12C renal
[54] = system: DU-145 prostate
[55] = system: HOP-62 NSCLC

## COc1ccc2[nH]c(-c3ccccc3)c(/C=C(\C#N)S(=O)(=O)c3ccccc3)c2c1
[1]
  GI50: 4.92 µM
  TGI: 69 µM
[2]
  GI50: 7.96 µM
  TGI: > 100 µM
[3]
  GI50: 6.05 µM
  TGI: 36.3 µM
[4]
  GI50: 3.7 µM
  TGI: 20.3 µM
[5]
  GI50: 13.5 µM
  TGI: > 100 µM
[6]
  GI50: 4.47 µM
  TGI: 43.4 µM
[7]
  GI50: 4.02 µM
  TGI: > 100 µM
[8]
  GI50: 2.79 µM
  TGI: 28.7 µM
[9]
  GI50: 9.31 µM
  TGI: 44.6 µM
[10]
  GI50: 2.21 µM
  TGI: 15.7 µM
[11]
  GI50: 17.5 µM
  TGI: > 100 µM
[12]
  GI50: 19.4 µM
  TGI: > 100 µM
[13]
  GI50: 2.38 µM
  TGI: 7.11 µM
[14]
  GI50: 12.9 µM
  TGI: > 100 µM
[15]
  GI50: 7.97 µM
  TGI: > 100 µM
[16]
  GI50: 3.49 µM
  TGI: > 100 µM
[17]
  GI50: 7.4 µM
  TGI: > 100 µM
[18]
  GI50: 3.93 µM
  TGI: > 100 µM
[19]
  GI50: 6.05 µM
  TGI: > 100 µM
[20]
  GI50: 2.96 µM
  TGI: > 100 µM
[21]
  GI50: 5.48 µM
  TGI: 34.7 µM
[22]
  GI50: 3.74 µM
  TGI: > 100 µM
[23]
  GI50: 4.79 µM
  TGI: 25.5 µM
[24]
  GI50: 3.98 µM
  TGI: 46.7 µM
[25]
  GI50: 7.48 µM
  TGI: > 100 µM
[26]
  GI50: 6.86 µM
  TGI: > 100 µM
[27]
  GI50: 3.83 µM
  TGI: > 100 µM
[28]
  GI50: 3.72 µM
  TGI: > 100 µM
[29]
  GI50: 6.07 µM
  TGI: > 100 µM
[30]
  GI50: 5.92 µM
  TGI: 44.8 µM
[31]
  GI50: 4.59 µM
  TGI: > 100 µM
[32]
  GI50: 4.96 µM
  TGI: 24.4 µM
[33]
  GI50: 3.05 µM
  TGI: 29.3 µM
[34]
  GI50: 8.33 µM
  TGI: > 100 µM
[35]
  GI50: 6.52 µM
  TGI: > 100 µM
[36]
  GI50: 7.05 µM
  TGI: 66.7 µM
[37]
  GI50: 7.35 µM
  TGI: > 100 µM
[38]
  GI50: 3.97 µM
  TGI: > 100 µM
[39]
  GI50: 4.55 µM
  TGI: > 100 µM
[40]
  GI50: 4.7 µM
  TGI: > 100 µM
[41]
  GI50: 13.3 µM
  TGI: > 100 µM
[42]
  GI50: 18.7 µM
  TGI: > 100 µM
[43]
  GI50: 1.42 µM
  TGI: > 100 µM
[44]
  GI50: 9.41 µM
  TGI: > 100 µM
[45]
  GI50: 5.98 µM
  TGI: > 100 µM
[46]
  GI50: 5.18 µM
  TGI: > 100 µM
[47]
  GI50: 4.03 µM
  TGI: 34.5 µM
[48]
  GI50: 37.3 µM
  TGI: > 100 µM
[49]
  GI50: 3.83 µM
  TGI: 60.7 µM
[50]
  GI50: 11.6 µM
  TGI: > 100 µM
[51]
  GI50: 8.3 µM
  TGI: > 100 µM
[52]
  GI50: 7.59 µM
  TGI: 85.5 µM
[53]
  GI50: 7.76 µM
  TGI: > 100 µM
[54]
  GI50: 10.1 µM
  TGI: > 100 µM
[55]
  GI50: 8.38 µM
  TGI: > 100 µM
